In patent US20230190736A1, “SMALL MOLECULE THERAPEUTICS FOR THE TREATMENT OF VIRAL INFECTIONS” (priority 2020, published 2023):
pIC50: −log10 of the molar value. Where two headings read alike, the source gives them in different places.

Assays:
Assay type in all cases: cell-based
[1] = tested on: SARS-CoV-2; test: microbe, parasite or virus in culture; settings: Severe acute respiratory syndrome coronavirus 2; secondary screen, doses 2.5, 25, 250 and 500 nM, immunofluorescent assay; read-out: IC50 anti SARS-CoV-2 activity
[2] = tested on: SARS-CoV-2; test: microbe, parasite or virus in culture
[3] = tested on: human lung stem cell derived Air-liquid interface (ALI) cells; test: Cell Titer glo viability assay in air-liquid interface (ALI) cultures; settings: up to 50 μM, 48 hours post treatment
Procedure: Series 1 and 2 are the values from independent wells.
Berzosertib was tested in a primary human lung tissue culture system consisting of mucociliary air-liquid interface (ALI) cultures derived from primary human proximal airway basal stem cells (ABSCs). 24-well 6.5 mm trans-wells with […] polyester membrane inserts were used for culturing ALI cells. 500 μl ALI media (PneumaCult-ALI Medium, […] Technologies) was used in the basal chamber for ALI cultures and cells were cultured at 37° C. with 5% CO2. […] Control cells were treated with the solvent DMSO. 48 hours post drug treatment, the cells were subjected to viability assay using Cell Titer glo kit.

[4] = tested on: SARS-CoV-2; settings: Compound A 50 nM, Compound B 50 nM; higher is better
[5] = tested on: SARS-CoV-2; test: mTORC1 inhibition of SARS-CoV-2 replication in Vero cells (fluorescence microscopy); settings: 25 nM, 72 hours
[6] = tested on: SARS-CoV-2; settings: 10 um, 1 hour pretreatment, MOI 1, 48 hpi

Q: `CNCc1ccc(-c2cc(-c3nc(-c4ccc(S(=O)(=O)C(C)C)cc4)cnc3N)on2)cc1` [Berzosertib] was tested. Which pIC50 [1] did it give?
A: 7.60

Q: And the “inhibition of virus positive cells” value [2]?
A: over 70%

Q: What about the pIC50 ([2]; Severe acute respiratory syndrome coronavirus 2, read-out: IC50 inhibiting SARS-CoV-2 determined by RTQPCR) of the same compound?
A: 7.40

Q: And the “effect on cell viability” value [3]?
A: did not have any deleterious effect on cell viability

Q: What about the “effect on cell viability” value ([3]; listed as berzosertib) of the same compound?
A: non-toxic and safe

Q: With `COc1ccc(CC(C)NCC(O)c2ccc(O)c(NC=O)c2)cc1` (stereo not drawn) [Empty-Formoterol, Formoterol] as the compound, how does the “Cell Number: Cell Nuclei Counts” value [4] read?
A: 8390

Q: Which “Cell Number: Cell Nuclei Counts” value [4] does the source give for `OCc1cc(C(O)CNCCCCCCOCCCCc2ccccc2)ccc1O` (stereo not drawn) [Empty-Salmeterol, Salmeterol] here?
A: 8193

Q: With `Cc1cn(-c2cc(NC(=O)c3ccc(C)c(Nc4nccc(-c5cccnc5)n4)c3)cc(C(F)(F)F)c2)cn1` [Nilotinib] as the compound, how does the pIC50 [1] read?
A: 6.30 to 6.60

Q: `CNC(=O)c1cccc(-c2ccc3c(N4CCOC[C@@H]4C)nc(N4CCOC[C@@H]4C)nc3n2)c1` [Vistusertib] was tested. Which “presence of viral dsRNA” value [5] did it give?
A: almost completely abolished

Q: And the pIC50 [1]?
A: 7.60

Q: `CCN(CCO)CCCC(C)Nc1ccnc2cc(Cl)ccc12` (stereo not drawn) [hydroxychloroquine] was tested. Which “inhibition of SARS-CoV-2 infection (dsRNA immunostaining)” value [6] did it give?
A: efficiently inhibited SARS-CoV-2 infection

Q: What about the “inhibition of SARS-CoV-2 infection (dsRNA immunostaining)” value ([6]; listed as HQ) of the same compound?
A: effectively blocked SARS-CoV-2 infection
